Source: US8629137B2, “CGRP antagonists” (Boehringer Ingelheim International GmbH, priority 2007, dated 2014)

What follows are compounds tested against T1, human CGRP receptor (Homo sapiens, UniProt O60894+Q16602) (assay: Binding studies with SK-N-MC cells (expressing the human CGRP receptor)). Conditions: SK-N-MC cell membranes, displacement of 125I-iodotyrosyl-CGRP.
T1 construct: SK-N-MC cells are cultivated in “Dulbecco's modified Eagle medium”; endogenous in cells; host or cells: SK-N-MC cells (membrane homogenate)
T1 sequence (Q16602 23-461): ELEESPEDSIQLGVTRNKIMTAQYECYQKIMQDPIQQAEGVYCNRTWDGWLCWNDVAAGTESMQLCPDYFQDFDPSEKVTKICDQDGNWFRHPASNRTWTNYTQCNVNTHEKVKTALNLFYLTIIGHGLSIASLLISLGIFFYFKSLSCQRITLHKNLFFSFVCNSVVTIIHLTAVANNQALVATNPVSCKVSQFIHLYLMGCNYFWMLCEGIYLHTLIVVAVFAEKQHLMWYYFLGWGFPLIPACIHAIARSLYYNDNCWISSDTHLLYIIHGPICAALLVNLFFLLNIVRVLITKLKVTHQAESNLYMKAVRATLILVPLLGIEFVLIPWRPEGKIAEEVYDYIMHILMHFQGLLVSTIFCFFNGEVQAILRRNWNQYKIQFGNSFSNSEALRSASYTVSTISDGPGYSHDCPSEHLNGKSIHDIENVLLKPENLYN
T1 sequence (O60894 27-148): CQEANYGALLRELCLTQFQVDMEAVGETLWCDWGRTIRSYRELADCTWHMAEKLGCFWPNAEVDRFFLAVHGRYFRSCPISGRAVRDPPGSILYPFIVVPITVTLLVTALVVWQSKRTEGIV
Protocol: A. Binding Studies with SK-N-MC Cells (Expressing the Human CGRP Receptor)
SK-N-MC cells are cultivated in “Dulbecco's modified Eagle medium”. The medium is removed from confluent cultures. The cells are washed twice with PBS buffer (Gibco 041-04190 M), detached by the addition of PBS buffer mixed with 0.02% EDTA, and isolated by centrifuging. After resuspension in 20 ml of “Balanced Salts Solution” [BSS (in mM): NaCl 120, KCl 5.4, NaHCO3 16.2, MgSO4 0.8, NaHPO4 1.0, CaCl2 1.8, D-glucose 5.5, HEPES 30, pH 7.40] the cells are centrifuged twice at 100×g and resuspended in BSS. After the number of cells has been determined, the cells are homogenised using an Ultra-Turrax and centrifuged for 10 minutes at 3000×g. The supernatant is discarded and the pellet is recentrifuged in Tris buffer (10 mM Tris, 50 mM NaCl, 5 mM MgCl2, 1 mM EDTA, pH 7.40) enriched with 1% bovine serum albumin and 0.1% bacitracin, and resuspended (1 ml/1000000 cells). The homogenised product is frozen at −80° C. The membrane preparations are stable for more than 6 weeks under these conditions.
After thawing, the homogenised product is diluted 1:10 with assay buffer (50 mM Tris, 150 mM NaCl, 5 mM MgCl2, 1 mM EDTA, pH 7.40) and homogenised for 30 seconds with an Ultra-Turrax. 230 μl of the homogenised product are incubated for 180 minutes at ambient temperature with 50 pM ^125I-iodotyrosyl-Calcitonin-Gene-Related Peptide (Amersham) and increasing concentrations of the test substances in a total volume of 250 μl. The incubation is ended by rapid filtration through GF/B glass fibre filters treated with polyethyleneimine (0.1%) using a cell harvester. The protein-bound radioactivity is measured using a gamma counter. Non-specific binding is defined as the bound radioactivity after the presence of 1 μM human CGRP-alpha during incubation.
The concentration binding curves are analysed using computer-aided non-linear curve fitting.

Q: Which Ki does the source give for Cc1cc(C(=O)c2cc(N3CCC(n4c(=O)[nH]c5ncccc54)CC3)ncn2)cc2oc(=O)[nH]c12 [(1)] here?
A: 0.4 nM

Q: How did the Ki turn out when Cc1cc(C(=O)c2cc(N3CCC(n4c(=O)[nH]c5c6ccccc6ncc54)CC3)ncn2)cc2oc(=O)[nH]c12 [(4)] was run?
A: 1 nM

Q: With Cc1cc(C(=O)c2cc(N3CCC(n4nc(-c5ccccc5)[nH]c4=O)CC3)ncn2)cc2oc(=O)[nH]c12 [(3)] as the compound, how does the Ki read?
A: 4 nM
